Literature values as cited in patent publication US9211305B2, “Pharmaceutical compositions with glycosaminoglycans and use thereof in the treatment of chronic ulcers” (LABORATORIOS FARMACEUTICOS ROVI S.A., priority 2008, dated 2015).

Columns and labels:
factor Xa = conditions: commercial products; cited from earlier work
[1] = in vivo; cited from earlier work
[2] = Ph. Eur. 6th Edition; cited from earlier work

| Substance | anti-factor Xa activity (factor Xa) | Plasma Half-Life [1] | Plasma Half-Life Range [1] | Anti-coagulating activity [2] |
| --- | --- | --- | --- | --- |
| Dalteparin | 110-210 IU/mg | 2.5 h | 2.3 to 2.8 h |  |
| Enoxaparin | 90-125 IU/mg | 4.2 h | 4.0 to 4.4 h |  |
| Heparin Sodium |  |  |  | ≥ 150 IU/mg |
| Nadroparin |  | 3.7 h | 3.7 h |  |
| Tinzaparin | 70-120 IU/mg | 3.0 h | 3.0 h |  |
